Activity calls are given as the source filed them. No cut-off for these calls is given here.
Tests used:
Rattus norvegicus [1] = assay: Systolic blood pressure (SBP) in anesthetized spontaneously hypertensive rats(SHR) at 7.5 hours after administration of 75 mg/kg dose perorally; format: functional; conditions: route oral
Rattus norvegicus [2] = assay: Systolic blood pressure (SBP) in anesthetized spontaneously hypertensive rats (SHR) before administration of 75 mg/kg dose perorally.; format: functional; design: unit: mmHg; conditions: route oral
Rattus norvegicus [3] = assay: Systolic blood pressure (SBP) in anesthetized spontaneously hypertensive rats(SHR) at 7.5 hours after administration of 75 mg/kg dose perorally; NS is not statistically significant.
Rattus norvegicus [4] = assay: Systolic blood pressure (SBP) in anesthetized spontaneously hypertensive rats(SHR) before administration of 150 mg/kg dose perorally; format: functional; conditions: route oral
Adrenergic receptor beta [5] = molecular target: T1, Adrenergic receptor beta (Rattus norvegicus, UniProt P18090+P10608+P26255)
Description: Inhibition constant from beta adrenergic receptor binding assay

Rattus norvegicus [6] = assay: Systolic blood pressure (SBP) in anesthetized spontaneously hypertensive rats(SHR) at 7.5 hours after administration of 75 mg/kg dose perorally; NS is not statistically significant
Cavia porcellus [7] = species on record: Cavia porcellus; assay: Inhibition of the isoproterenol response at a dose of 1 x 10e -4M in guinea pig; slight inhibition was found; format: functional, organism-based
Rattus norvegicus [8] = assay: Systolic blood pressure (SBP) in anesthetized spontaneously hypertensive rats(SHR) at 7.5 hours after administration of 35 mg/kg dose perorally; format: functional; conditions: route oral
Rattus norvegicus [9] = assay: Systolic blood pressure (SBP) in anesthetized spontaneously hypertensive rats(SHR) before administration of 35 mg/kg dose perorally; format: functional; design: unit not given here; conditions: route oral
Rattus norvegicus [10] = assay: Systolic blood pressure (SBP) in anesthetized spontaneously hypertensive rats(SHR) at 7.5 hours after administration of 17 mg/kg dose perorally; format: functional; conditions: route oral
Rattus norvegicus [11] = assay: Systolic blood pressure (SBP) in anesthetized spontaneously hypertensive rats(SHR) before administration of 17 mg/kg dose perorally; format: functional; conditions: route oral
Cavia porcellus [12] = species on record: Cavia porcellus; assay: Inhibition of the isoproterenol response at a dose of 1 x 10e -4M in guinea pig; slight inhibition was found.; format: functional, organism-based
Adrenergic receptor beta [13] = molecular target: T1, Adrenergic receptor beta; assay: Inhibition constant obtained from beta adrenergic receptor binding assay; format: protein assay
Rattus norvegicus [14] = assay: Compound was evaluated for % decrease in hypothalamus norepinephrine in anesthetized spontaneously hypertensive rats(SHR) at 24 hours after administration of 35 mg/kg dose perorally; format: functional; conditions: route oral
Rattus norvegicus [15] = assay: Compound was evaluated for % decrease in heart norepinephrine in anesthetized spontaneously hypertensive rats(SHR) at 24 hours after administration of 35 mg/kg dose perorally; format: functional; conditions: route oral
Rattus norvegicus [16] = assay: Compound was evaluated for % decrease in adrenal epinephrine in anesthetized spontaneously hypertensive rats(SHR) at 24 hours after administration of 35 mg/kg dose perorally; format: functional; conditions: route oral

CCCNCC(COc1ccc2c(=O)cc(-c3ccccc3)oc2c1)OC(=O)c1ccccc1 (stereo not given)
Decrease in Systolic blood pressure (Rattus norvegicus [1]): 22.5%
Systolic blood pressure (Rattus norvegicus [2]): 187

CC(C)NCC(O)COc1cc(O)c2c(=O)cc(-c3ccccc3)oc2c1 (stereo not given)
Decrease in Systolic blood pressure (Rattus norvegicus [1]): 15%
Systolic blood pressure (Rattus norvegicus [2]): 195

CC(C)NCC(O)COc1ccc2c(=O)cc(-c3ccc([N+](=O)[O-])cc3)oc2c1 (stereo not given)
Systolic blood pressure (Rattus norvegicus [2]): 202
Decrease in Systolic blood pressure (Rattus norvegicus [3]): Not significant

CC(C)(C)NCC(O)COc1ccc2c(=O)cc(-c3ccccc3)oc2c1 (stereo not given)
Systolic blood pressure (Rattus norvegicus [4]): 201
Ki (Adrenergic receptor beta [5]): 18 µM

CC(C)NCC(O)COc1ccc2c(=O)c(Cc3ccccc3)c(-c3ccccc3)oc2c1 (stereo not given)
Systolic blood pressure (Rattus norvegicus [2]): 200
Decrease in Systolic blood pressure (Rattus norvegicus [6]): Not significant

Cc1cc(=O)c2ccc(OCC(O)CNC(C)C)cc2o1 (stereo not given)
Systolic blood pressure (Rattus norvegicus [2]): 196
Ki (Adrenergic receptor beta [5]): 23 µM
Decrease in Systolic blood pressure (Rattus norvegicus [3]): inactive

NCC(O)COc1ccc2c(=O)cc(-c3ccccc3)oc2c1 (stereo not given)
Systolic blood pressure (Rattus norvegicus [2]): 187
Decrease in Systolic blood pressure (Rattus norvegicus [6]): Not significant

COc1ccc(CCNCC(O)COc2ccc3c(=O)cc(-c4ccccc4)oc3c2)cc1OC (stereo not given)
Systolic blood pressure (Rattus norvegicus [2]): 204
Decrease in Systolic blood pressure (Rattus norvegicus [3]): Not significant

CC(C)[N+](C)(C)CC(O)COc1ccc2c(=O)cc(-c3ccccc3)oc2c1.[I-] (stereo not given)
Systolic blood pressure (Rattus norvegicus [2]): 200
Decrease in Systolic blood pressure (Rattus norvegicus [6]): Not significant

Cc1c(-c2ccccc2)oc2cc(OCC(O)CNC(C)C)ccc2c1=O (stereo not given)
Activity (Cavia porcellus [7]): slight inhibition was found
Decrease in Systolic blood pressure (Rattus norvegicus [8]): 10%
Decrease in Systolic blood pressure (Rattus norvegicus [1]): 27%
Systolic blood pressure (Rattus norvegicus [9]): 206
Systolic blood pressure (Rattus norvegicus [2]): 208

O=c1cc(-c2ccccc2)oc2cc(OCC(O)CN3CCN(c4ccccc4)CC3)ccc12 (stereo not given)
Systolic blood pressure (Rattus norvegicus [2]): 217
Decrease in Systolic blood pressure (Rattus norvegicus [3]): Not significant

O=c1cc(-c2ccccc2)oc2cc(OCC(O)CNC3CC3)ccc12 (stereo not given)
Decrease in Systolic blood pressure (Rattus norvegicus [10]): 21%
Decrease in Systolic blood pressure (Rattus norvegicus [8]): 31%
Decrease in Systolic blood pressure (Rattus norvegicus [1]): 32%
Systolic blood pressure (Rattus norvegicus [11]): 197
Systolic blood pressure (Rattus norvegicus [9]): 198
Systolic blood pressure (Rattus norvegicus [2]): 196
Activity (Cavia porcellus [12]): Weak activity
Ki (Adrenergic receptor beta [5]): 1.5 µM

CCCNCC(O)COc1ccc2c(=O)c(Cc3ccccc3)c(-c3ccccc3)oc2c1 (stereo not given)
Decrease in Systolic blood pressure (Rattus norvegicus [1]): 14%
Systolic blood pressure (Rattus norvegicus [2]): 198

O=c1cc(-c2ccccc2)oc2cc(OCC(O)CNC3CCCCC3)ccc12 (stereo not given)
Ki (Adrenergic receptor beta [13]): 5.5 µM
Decrease in Systolic blood pressure (Rattus norvegicus [8]): 20%
Systolic blood pressure (Rattus norvegicus [9]): 201

CC(C)NCC(O)COc1cccc2ccccc12 (stereo not given) [PROPRANOLOL]
Systolic blood pressure (Rattus norvegicus [2]): 212
Decrease in Systolic blood pressure (Rattus norvegicus [6]): inactive

CCCNCC(O)COc1ccc2c(=O)c(-c3ccccc3)c(-c3ccccc3)oc2c1 (stereo not given)
Decrease (Rattus norvegicus [14]): 12%
Decrease (Rattus norvegicus [15]): 100%
Decrease (Rattus norvegicus [16]): 10%

O=c1cc(-c2ccccc2)oc2cc(OCC(O)CNCCO)ccc12 (stereo not given)
Systolic blood pressure (Rattus norvegicus [2]): 189
Decrease in Systolic blood pressure (Rattus norvegicus [3]): Not significant

O=c1cc(-c2ccccc2)oc2cc(OCC(O)CNCc3ccccc3)ccc12 (stereo not given)
Systolic blood pressure (Rattus norvegicus [2]): 223
Decrease in Systolic blood pressure (Rattus norvegicus [3]): Not significant

Cc1ccc(-c2cc(=O)c3ccc(OCC(O)CNC(C)C)cc3o2)cc1 (stereo not given)
Systolic blood pressure (Rattus norvegicus [2]): 196
Decrease in Systolic blood pressure (Rattus norvegicus [3]): Not significant

From ChEMBL document CHEMBL1124625, “Flavones. 2. Synthesis and structure-activity relationship of flavodilol and its analogues, a novel class of antihypertensive agents with catecholamine depleting properties” (J Med Chem, 1989)
